Data on 20 compounds can be found in patent US20120202856A1, “SUBSTITUTED BENZIMDAZOLE DERIVATIVES USEFUL AS TRPM8 RECEPTOR MODULATORS” (priority 2011, published 2012).

SMILES strings stand for the structures. Where “and” joins values, the source holds several entries; their conditions need not be identical. Identical values can stand only once. Counter-ions that a name gives are not always drawn. Like-named read-outs stand apart in the source and are kept apart here.

Test [1] deals with icilin-induced “wet-dog” shakes (WDS). Description: Inhibition of Icilin-Induced “Wet-Dog” Shakes in Rats. Format: in vivo, Sprague Dawley rats. The settings on record: po; for inhibition in vivo at 3 mg/kg / inhibition in vivo at 10 mg/kg: read-out: Icilin % Inhibition @1.5 hrs. The protocol:
The test compound was administered in 10% hydroxypropyl-β-cyclodextrin (HP-13-CD), p.o., 60 min before icilin.
% Inhibition=[1−(test compound WDS count/vehicle WDS count)]×100.

For test [2], the target named is T1, canine TRPM8 (Canis lupus familiaris, UniProt Q1A7N1).
T1 construct: expressed in transfected cells
Description: In Vitro Canine TRPM8 Functional Assay (intracellular Ca2+ fluorescence, icilin activation, HEK293 cells). Format: cell-based. The settings on record: for % Inh (%) @0.2 μM, in vitro TRP M8 Activity: 0.2 μM test compound; for % Inh (%) @0.2 μM, in vitro TRP M8 Activity / inhibition at 0.2 µM: individually measured values; for IC50: HEK293 cells expressing canine TRPM8, icilin activation, individually measured values (batches/salt forms), read-out: IC50 (nM), in vitro TRP M8 Activity. The method, boiled down:
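HEK293 cells expressing canine TRPM8 loaded with Calcium 3 dye, then stimulated with icilin; intracellular Ca2+ rise read on FLIPR or FDSS. Peak fluorescence minus basal normalized to percent maximal response; IC50 from sigmoidal nonlinear regression of quadruplicate wells.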

The test system of test [3] is CCI-induced cold hypersensitivity. Description: Chronic Constriction Injury (CCI)-Induced Model of Neuropathic Pain, Acetone-Induced Hypersensitivity. The class given is in vivo, Sprague-Dawley rats. The settings on record: rat, p.o., acetone-induced withdrawals, 2 h after administration. From the text:
Male Sprague-Dawley rats (225-450 g; n=5-8/treatment) were used to evaluate the ability of test compounds to reverse CCl-induced cold hypersensitivity. Four loose ligatures of 4-0 chromic gut were surgically placed around the left sciatic nerve under inhalation anesthesia as described by Bennett et al. (BENNETT, G. J., et al., “A peripheral mononeuropathy in rat that produces disorder of pain sensation like those seen in man”, Pain, 1988, pp 87-107, Vol. 33(1)). Fourteen to 35 days following CCl surgery, subjects were placed in elevated observation chambers containing wire mesh floors, and five applications of acetone (0.05 mL/application separated by approximately 5 min) were spritzed onto the plantar surface of the paw using a multidose syringe. An abrupt withdrawal or lifting of the paw was considered a positive response. The number of positive responses was recorded for each rat over the five trials. […] The number of withdrawals was re-determined at 2 hr after compound administration. […] Results are presented below as a percent inhibition of […], which was calculated for each subject and then averaged by treatment as follows: […]

The subject of test [4] is rats. The note with it: cited from earlier work.
Test [5] concerns humans. The note with it: 5-10 mg ingested orally; cited from earlier work.
Where [6] appears, read: rat, p.o., dose 3 mg/kg, 1.5 hrs.
The mark [7] stands for this setting: HEK293, 0.2 μM test compound, read-out: % Inh (%) @0.2 μM, in vitro TRP M8 Activity.
The mark [8] stands for this setting: rat, p.o., dose 10 mg/kg, 1.5 hrs.
Where [9] appears, read: HEK293, read-out: % Inh (%) @0.2 μM, in vitro TRP M8 Activity, 0.2 μM test compound.

T1 sequence (Q1A7N1 1-1104): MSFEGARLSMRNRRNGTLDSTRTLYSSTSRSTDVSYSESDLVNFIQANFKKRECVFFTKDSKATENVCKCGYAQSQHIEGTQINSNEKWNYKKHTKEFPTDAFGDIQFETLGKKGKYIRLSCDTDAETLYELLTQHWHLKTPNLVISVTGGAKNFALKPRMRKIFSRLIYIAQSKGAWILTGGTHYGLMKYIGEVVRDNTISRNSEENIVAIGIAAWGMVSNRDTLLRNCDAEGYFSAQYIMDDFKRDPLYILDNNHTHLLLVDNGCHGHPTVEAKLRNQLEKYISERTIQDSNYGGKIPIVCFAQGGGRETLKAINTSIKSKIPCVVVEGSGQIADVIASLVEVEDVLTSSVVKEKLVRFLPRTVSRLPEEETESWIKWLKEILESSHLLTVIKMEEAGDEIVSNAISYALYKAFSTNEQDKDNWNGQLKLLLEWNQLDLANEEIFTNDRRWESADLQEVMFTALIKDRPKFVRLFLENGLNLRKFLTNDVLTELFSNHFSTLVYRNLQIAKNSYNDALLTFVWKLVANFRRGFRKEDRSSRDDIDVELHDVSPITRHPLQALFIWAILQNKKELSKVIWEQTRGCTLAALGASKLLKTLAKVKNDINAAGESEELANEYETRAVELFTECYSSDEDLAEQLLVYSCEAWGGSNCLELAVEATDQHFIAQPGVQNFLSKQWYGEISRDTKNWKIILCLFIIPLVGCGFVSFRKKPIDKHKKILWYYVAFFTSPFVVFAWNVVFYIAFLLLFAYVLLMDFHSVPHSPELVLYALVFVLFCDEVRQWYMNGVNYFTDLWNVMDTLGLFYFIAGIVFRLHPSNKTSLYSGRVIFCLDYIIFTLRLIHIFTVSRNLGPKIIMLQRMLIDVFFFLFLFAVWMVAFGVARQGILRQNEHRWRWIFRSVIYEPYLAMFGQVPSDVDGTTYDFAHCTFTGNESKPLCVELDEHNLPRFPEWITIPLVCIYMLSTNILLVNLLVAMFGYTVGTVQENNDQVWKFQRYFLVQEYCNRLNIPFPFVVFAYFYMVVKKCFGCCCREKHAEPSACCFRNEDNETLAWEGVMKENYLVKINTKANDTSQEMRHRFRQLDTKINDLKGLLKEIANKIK

As to `Cn1nc(C(C)(C)C)c(C#N)c1-c1nc2cc(-c3ccccc3Cl)cc(Cl)c2[nH]1.[Na]` [Compound 168, 3-tert-Butyl-5-[7-chloro-5-(2-chloro-phenyl)-1H-benzimidazol-2-yl]-1-methyl-1H-pyrazole-4-carbonitrile sodium salt], the inhibition in vivo at 3 mg/kg in test [1] (setting [6]) was 86%. Moreover, the “% Inh (%) @0.2 μM, in vitro TRP M8 Activity” value (from here on “% Inh (%) @0.2 μM”) in test [2] (sodium salt, 0.2 µM) is 101% and 100% (2×). Moreover, the inhibition at 0.2 µM in test [2] (setting [7]) stood at 99%. Besides, the half-maximal inhibitory concentration (IC50) (as a rule, the concentration that inhibits the measured activity by half) in test [2] is 2.3 nM and 7 nM and 4.3 nM and 4.7 nM and 3.2 nM. Also, in test [3], the “CCI % Inhibition @ 2 h” value is 74.3%.
For the compound `Cn1nc(C(C)(C)C)c(Cl)c1-c1nc2cc(-c3c(F)cccc3C(F)(F)F)ccc2[nH]1` [Compound 86, 2-(5-tert-Butyl-4-chloro-2-methyl-2H-pyrazol-3-yl)-5-(2-fluoro-6-trifluoromethyl-phenyl)-1H-benzimidazole hydrochloride], the inhibition in vivo at 10 mg/kg in test [1] (setting [8]) is 98.7%. The IC50 in test [2] was 3.1 nM and 7.7 nM.
In turn, `CC(C)(C)c1cc(-c2nc3cc(-c4ccccc4OC(F)(F)F)ccc3[nH]2)on1.[Na]` [Compound 10, 2-(3-tert-Butylisoxazol-5-yl)-5-(2-trifluoromethoxyphenyl)-1H-benzimidazole sodium salt] displayed an inhibition in vivo at 30 mg/kg in test [1] (rat, dose 30 mg/kg, 1.5 hrs) of 97.3%. Moreover, in test [2], the IC50 was 12 nM and 15 nM and 10 nM. In addition, in test [3], the “CCI % Inhibition @ 2 h” value worked out at 57.1%.
Take `Cn1nc(C(C)(C)C)c(Cl)c1-c1nc2cc(-c3c(F)cccc3C(F)(F)F)cc(C(F)(F)F)c2[nH]1` [Compound 125, 2-(5-tert-Butyl-4-chloro-2-methyl-2H-pyrazol-3-yl)-5-(2-fluoro-6-trifluoromethyl-phenyl)-7-trifluoromethyl-1H-benzimidazole sodium salt]: the inhibition in vivo at 3 mg/kg in test [1] (Rattus norvegicus, 1.5 h) is 24.6%. For the same compound, the inhibition at 0.2 µM in test [2] (setting [9]) came to 100%. Further, the IC50 in test [2] is 3.2 nM and 1.7 nM.
In the case of `Cl.Cn1nc(C(C)(C)C)c(Cl)c1-c1nc2cc(-c3ccccc3OC(F)(F)F)cc(Cl)c2[nH]1` [Compound 117, 2-(5-tert-Butyl-4-chloro-2-methyl-2H-pyrazol-3-yl)-7-chloro-5-(2-trifluoromethoxy-phenyl)-1H-benzimidazole hydrochloride], the inhibition in vivo at 3 mg/kg in test [1] (setting [6]) came to 7.7%. In test [2], the “% Inh (%) @0.2 μM” value is on record as 100, 100%; the IC50 is 7 nM and 11.3 nM and 8.4 nM. Further, the inhibition at 0.2 µM in test [2] (setting [7]) turned out to be 100%.
With `O=C1NC(c2cccc([N+](=O)[O-])c2)=CCN1c1ccccc1O` [Icilin], in test [4], the “behaviour caused in initial in vivo testing” value was ““wet-dog” shakes”. Besides, the “coldness in the mouth, pharynx and chest lasting” value in test [5] was 30 to 60 min.
With `Cl.Cn1nc(C(C)(C)C)c(Cl)c1-c1nc2cc(-c3ccccc3F)ccc2[nH]1` [Compound 90, 2-(5-tert-Butyl-4-chloro-2-methyl-2H-pyrazol-3-yl)-5-(2-fluoro-phenyl)-1H-benzimidazole hydrochloride], the inhibition in vivo at 5.6 mg/kg in test [1] (rat, 1.5 hrs) was 52.7%. Besides, the IC50 in test [2] is 7.4 nM and 5 nM and 9.3 nM. For the same compound, the “CCI % Inhibition @ 2 h” value in test [3] worked out at 22.5%.
Compound `Cc1cc(-c2ccccc2C(F)(F)F)cc2nc(-c3cc(C(C)(C)C)nn3C)[nH]c12` [Compound 79, 2-(5-tert-Butyl-2-methyl-2H-pyrazol-3-yl)-7-methyl-5-(2-trifluoromethylphenyl)-1H-benzimidazole hydrochloride] showed an inhibition in vivo at 5.6 mg/kg in test [1] (rat, 1.5 hrs) of 20.1%. Besides, the IC50 in test [2] is 5 nM and 14.4 nM.
Consider `Cc1c(C(C)(C)C)nn(C)c1-c1nc2cc(-c3ccccc3C(F)(F)F)cc(C(F)(F)F)c2[nH]1` [Compound 120, 2-(5-tert-Butyl-2,4-dimethyl-2H-pyrazol-3-yl)-7-trifluoromethyl-5-(2-trifluoromethyl-phenyl)-1H-benzimidazole hydrochloride], for which, in test [1] (setting [6]), the inhibition in vivo at 3 mg/kg turned out to be 44.8%. For the same compound, the IC50 in test [2] was determined as 2.1 nM.
Regarding `Cn1nc(C(C)(C)C)cc1-c1nc2cc(-c3c(F)cccc3C(F)(F)F)ccc2[nH]1` [Compound 61, 2-(5-tert-Butyl-2-methyl-2H-pyrazol-3-yl)-5-(2-fluoro-6-trifluoromethylphenyl)-1H-benzimidazole sodium salt], the inhibition in vivo at 10 mg/kg in test [1] (Rattus norvegicus, 1.5 h) came out at 38.8%. Also, in test [2], the IC50 was 7.8 nM and 10 nM.
On to `Cn1nc(C(C)(C)C)c(Cl)c1-c1nc2cc(-c3c(F)cccc3OC(F)(F)F)cc(Cl)c2[nH]1` [Compound 130, 2-(5-tert-Butyl-4-chloro-2-methyl-2H-pyrazol-3-yl)-7-chloro-5-(2-fluoro-6-trifluoromethoxy-phenyl)-1H-benzimidazole hydrochloride], for which the inhibition in vivo at 3 mg/kg in test [1] (setting [6]) amounted to 22.7%. In test [2] (setting [7]), the inhibition at 0.2 µM worked out at 100%. Also, the IC50 in test [2] is 10.7 nM and 5.3 nM.
For `CC(C)(C)c1cc(-c2nc3cc(-c4ccccc4C(F)(F)F)ccc3[nH]2)on1` [Compound 9, 2-(3-tert-Butylisoxazol-5-yl)-5-(2-trifluoromethylphenyl)-1H-benzimidazole sodium salt], the inhibition in vivo at 10 mg/kg in test [1] (setting [8]) was 66.4%. The IC50 in test [2] was 17.4 nM and 12 nM.
As to `Cl.Cn1nc(C(C)(C)C)c(Cl)c1-c1nc2cc(-c3c(F)cccc3F)ccc2[nH]1` [Compound 85, 2-(5-tert-Butyl-4-chloro-2-methyl-2H-pyrazol-3-yl)-5-(2,6-difluoro-phenyl)-1H-benzimidazole hydrochloride], the inhibition in vivo at 10 mg/kg in test [1] (setting [8]) was 96.4%. Besides, the IC50 in test [2] is 3.7 nM and 4.6 nM and 3.8 nM. The “CCI % Inhibition @ 2 h” value in test [3] was determined as 34.3%.
As for `Cl.Cn1nc(C(C)(C)C)c(Cl)c1-c1nc2cc(-c3ccccc3C(F)(F)F)cc(Cl)c2[nH]1` [Compound 116, 2-(5-tert-Butyl-4-chloro-2-methyl-2H-pyrazol-3-yl)-7-chloro-5-(2-trifluoromethyl-phenyl)-1H-benzimidazole hydrochloride], the inhibition in vivo at 3 mg/kg in test [1] (setting [6]) is 47.7%. Moreover, the “% Inh (%) @0.2 μM” value in test [2] (hydrochloride, 0.2 µM) amounted to 100%. Besides, the inhibition at 0.2 µM in test [2] (setting [7]) came out at 99%. Also, the IC50 in test [2] was 2.6 nM and 5.8 nM and 5.5 nM.
In test [1] (rat, 1.5 hrs), `Cn1nc(C(C)(C)C)cc1-c1nc2cc(-c3c(F)cccc3F)ccc2[nH]1` [Compound 58, 2-(5-tert-Butyl-2-methyl-2H-pyrazol-3-yl)-5-(2,6-difluoro-phenyl)-1H-benzimidazole trifluoroacetic acid salt] registered an inhibition in vivo at 5.6 mg/kg of 11.2%. Moreover, in test [2], the IC50 is 14 nM and 17.3 nM.
For `Cn1nc(C(C)(C)C)c(Cl)c1-c1nc2cc(-c3ccccc3Cl)cc(Cl)c2[nH]1.[Na]` [Compound 115, 2-(5-tert-Butyl-4-chloro-2-methyl-2H-pyrazol-3-yl)-7-chloro-5-(2-chloro-phenyl)-1H-benzimidazole sodium salt], the inhibition in vivo at 3 mg/kg in test [1] (setting [6]) is 45%. Moreover, in test [2], the “% Inh (%) @0.2 μM” value is recorded as 100, 100%; the IC50 was 2.2 nM and 5.6 nM and 4.9 nM. Besides, in test [2] (setting [7]), the inhibition at 0.2 µM was found to be 100%.
In the case of `Cc1c(C(C)(C)C)nn(C)c1-c1nc2cc(-c3ccccc3F)cc(Cl)c2[nH]1` [Compound 133, 2-(5-tert-Butyl-2,4-dimethyl-2H-pyrazol-3-yl)-7-chloro-5-(2-fluoro-phenyl)-1H-benzimidazole hydrochloride], in test [1] (setting [6]), the inhibition in vivo at 3 mg/kg came to 4.6%. In addition, in test [2] (setting [7]), the inhibition at 0.2 µM worked out at 99%. In test [2], the IC50 was 12.6 nM and 10.2 nM.
Regarding `Cn1nc(C(C)(C)C)c(Cl)c1-c1nc2cc(-c3c(F)cccc3C(F)(F)F)cc(Cl)c2[nH]1.[Na]` [Compound 113, 2-(5-tert-Butyl-4-chloro-2-methyl-2H-pyrazol-3-yl)-7-chloro-5-(2-fluoro-6-trifluoromethyl-phenyl)-1H-benzimidazole sodium salt], the inhibition in vivo at 3 mg/kg in test [1] (Rattus norvegicus, 1.5 h) came to 2.8%. In test [2] (sodium salt, 0.2 µM), the “% Inh (%) @0.2 μM” value is reported as 100%. In test [2] (setting [9]), the inhibition at 0.2 µM worked out at 99%. For the same compound, the IC50 in test [2] was 2.4 nM and 3.5 nM and 4.4 nM.
Turning to `Cc1c(C(C)(C)C)nn(C)c1-c1nc2cc(-c3c(F)cccc3C(F)(F)F)ccc2[nH]1` [Compound 78, 2-(5-tert-Butyl-2,4-dimethyl-2H-pyrazol-3-yl)-5-(2-fluoro-6-trifluoromethyl-phenyl)-1H-benzimidazole sodium salt], the inhibition in vivo at 10 mg/kg in test [1] (Rattus norvegicus, 1.5 h) is 99.3%. Besides, the IC50 in test [2] turned out to be 1 nM.
For the compound `Cl.Cn1nc(C(C)(C)C)c(Cl)c1-c1nc2cc(-c3c(F)cccc3F)cc(Cl)c2[nH]1` [Compound 112, 2-(5-tert-Butyl-4-chloro-2-methyl-2H-pyrazol-3-yl)-7-chloro-5-(2,6-difluoro-phenyl)-1H-benzimidazole hydrochloride], the inhibition in vivo at 3 mg/kg in test [1] (setting [6]) worked out at 21.2%. In addition, in test [2], the “% Inh (%) @0.2 μM” value is given as 99, 99%; the half-maximal inhibitory concentration (IC50) is 5.6 nM and 3.5 nM and 5.9 nM. In test [2] (setting [7]), the inhibition at 0.2 µM is 99%.
